Experimental data published in PMC5127184 (Scientific Reports, 2016).
Entries after “also recorded” stand apart in the source; their conditions may differ. Ends that are not written are not given here.

How the values were obtained:
pGLP-1R [1] = experiment: Radioligand competition binding, FlpInCHO-pGLP-1R cells; parameters: species or system platypus; details: competition with 125I-hGLP-1 (7–36), 0.15 nM, FlpInCHO cells stably expressing pGLP-1R, overnight 4 °C; means ± S.E.M. of two or three experiments in triplicate
Procedure: (§1) Human and pGLP-1R cDNAs were isogenically integrated into FlpIn-Chinese hamster ovary (FlpInCHO) cells (Invitrogen) and selection of receptor-expressing cells accomplished by treatment with 600 μg/ml hygromycin B as described previously. Transfected and parental FlpInCHO cells were maintained in DMEM supplemented with 10% heat-inactivated FBS and incubated in a humidified environment at 37 °C in 5% CO2.
Cells were then incubated overnight at 4 °C, followed by three washes with ice-cold 1 × PBS to remove unbound radioligand. Cells were then lysed in 0.1 M NaOH, and radioactivity determined by γ-counting as described previously.
(§2) All data were analysed in Prism 6.0c (GraphPad Software Inc., San Diego, CA). Concentration response signalling data were analysed using a three-parameter logistic equation as described previously. Signalling bias was analysed as described. Briefly, quantification of signal bias was performed using pharmacologically derived parameters of agonist affinity (Ka) and efficacy (tau) for each ligand in each of the three signalling pathways (cAMP accumulation, ERK1/2 phosphorylation, Intracellular Ca^2+ mobilisation). […] Data are presented on a log scale.

pGLP-1R [2] = experiment: Intracellular Ca2+ mobilization, FlpInCHO-pGLP-1R cells; type: cell-based, platypus; details: normalized to 100 μM ATP, means ± S.E.M. of at least three experiments in triplicate
Procedure: as §1
(§3) FlpInCHO-hGLP-1R and FlpInCHO-pGLP-1R cells were seeded at a density of 3 × 10^4 cells/well into 96-well culture plates and incubated overnight at 37 °C in 5% CO2 and receptor-mediated intracellular Ca^2+ mobilization determined as described previously.
as §2

INS-1 (832/13) cells = experiment: cAMP accumulation, INS-1 (832/13) cells; type: cell-based; details: normalized to forskolin response, means ± S.E.M. of at least three experiments in triplicate
DPP-4 [3] = experiment: Cleavage by purified human DPP-4 (RP-HPLC); type: in vitro ADME; details: human, isolated enzyme dpp iv, 30 μM peptide, DPP-4 3 U/L, 0.1 M sodium phosphate pH 7.4, 37 °C, UV 215.8 nm, n = 3, read-out: Time to 50% reduction of intact peptide with purified human DPP-4
Procedure: (§4) Samples were analysed by RP-HPLC with solvent A (0.1% TFA in water) and B (80% acetonitrile in 0.1% aqueous TFA) at a flow rate of 0.5 ml/min.

[4] = 12.5% platypus serum in 100 mM sodium phosphate buffer (PH 7.4), 150 mM NaCl, 0.2% Tween-20; details: 37 °C, up to 4 h
[5] = 12.5% echidna serum in 100 mM sodium phosphate buffer (PH 7.4), 150 mM NaCl, 0.2% Tween-20; details: 37 °C, up to 4 h
[6] = 12.5% human serum in 100 mM sodium phosphate buffer (PH 7.4), 150 mM NaCl, 0.2% Tween-20; details: 37 °C, up to 4 h
echidna serum = details: 37 °C, up to seven hours
[7] = purified human serum in the presence of DPP-4 inhibitor P32/98; details: 37 °C, up to 11 h
[8] = albumin-depleted human serum (purified by DEAE Affi-Gel Blue Cartridges); details: 37 °C, up to 11 h
DPP-4 [9] = experiment: DPP-4 (3 U/L) in sodium phosphate buffer (0.1 M, pH 7.4); details: human, 37 °C, up to 120 min
in vitro [10] = type: in vitro ADME, human; details: 7 μM peptide, 37 °C; for Stability in albumin-depleted human serum (in words): 0-11 h, RP-HPLC, n = 3; for remaining at 11 h, 7 μM: human, 11 h incubation, serum purified by DEAE Affi-Gel Blue (albumin-depleted), RP-HPLC area under the curve of intact peptide, means ± S.E.M. of three experiments in triplicate
Procedure: (§5) Aliquots were analysed by RP-HPLC. Human serum was from the author Briony Forbes and provided with informed consent. We confirm that all methods for these studies were carried out in accordance with relevant guidelines and regulations, and all experimental protocols satisfy the Adelaide University Human Research Ethics Committee criteria as being “negligible risk research”.

hGLP-1R [11] = biological target: T1, hGLP-1R (Homo sapiens, UniProt P43220); experiment: Intracellular Ca2+ mobilization, FlpInCHO-hGLP-1R cells; type: cell-based
T1 construct: expressed in transfected cells
Procedure: as §1, §3, §2

hGLP-1R [12] = biological target: T1, hGLP-1R; experiment: Radioligand competition binding, FlpInCHO-hGLP-1R cells
Procedure: as §1, with “CO2. INS-1(832/13) cells were cultured in RPMI-1640 medium supplemented with 10 mM HEPES, 10% heat-inactivated FBS, 2 mM L-glutamine, 1 mM sodium pyruvate, 0.05 mM β-mercaptoethanol, 100 iU/ml penicillin, and 100 µg/ml streptomycin at 37 °C in a humidified 5% CO2 atmosphere.” for “CO2.”
FlpInCHO-hGLP-1R and FlpInCHO-pGLP-1R cells were seeded at a density of 3 × 10^4 cells/well and INS-1(832/13) cells at 10^5 cells/well into 96-well culture plates and incubated overnight at 37 °C in 5% CO2. […] Cells were then lysed in 0.1 M NaOH, and radioactivity determined by γ-counting as described previously.
All data were analysed in Prism 6.0c (GraphPad Software Inc., San Diego, CA). Concentration response signalling data were analysed using a three-parameter logistic equation as described previously. Signalling bias was analysed as described. […] The transduction ratio (tau/Ka) was extracted from standard concentration-response data that was analysed with the operational model of agonism (Kenakin & Christopoulos 2012). […]

in vitro [13] = type: in vitro ADME, echidna; details: 7 μM peptide, 37 °C; for Uncleaved peptide remaining after 11 hours in echidna serum: RP-HPLC, sentence covers platypus and echidna sera; for remaining at 11 h, 7 μM: echidna, 11 h incubation, serum purified by DEAE Affi-Gel Blue, RP-HPLC area under the curve of intact peptide, means ± S.E.M. of three experiments in triplicate
Procedure: as §5

in vitro [14] = type: in vitro ADME, platypus; details: 37 °C; for Effect of DPP-4 inhibitor P32/98 on degradation in platypus serum (in words): 100 μM P32/98, 7 μM peptide, RP-HPLC; for remaining at 11 h, 7 μM: platypus, 11 h incubation, 7 μM peptide, serum purified by DEAE Affi-Gel Blue, RP-HPLC area under the curve of intact peptide, means ± S.E.M. of three experiments in triplicate
Procedure: as §5

hGLP-1R [15] = biological target: T1, hGLP-1R; experiment: cAMP accumulation, FlpInCHO-hGLP-1R cells; type: cell-based
Procedure: as §1, with “CO2. INS-1(832/13) cells were cultured in RPMI-1640 medium supplemented with 10 mM HEPES, 10% heat-inactivated FBS, 2 mM L-glutamine, 1 mM sodium pyruvate, 0.05 mM β-mercaptoethanol, 100 iU/ml penicillin, and 100 µg/ml streptomycin at 37 °C in a humidified 5% CO2 atmosphere. […]” for “CO2.”
All data were analysed in Prism 6.0c (GraphPad Software Inc., San Diego, CA). Concentration response signalling data were analysed using a three-parameter logistic equation as described previously. Signalling bias was analysed as described. Briefly, quantification of signal bias was performed using pharmacologically derived parameters of agonist affinity (Ka) and efficacy (tau) for each ligand in each of the three signalling pathways (cAMP accumulation, ERK1/2 phosphorylation, Intracellular Ca^2+ mobilisation). The transduction ratio (tau/Ka) was extracted from standard concentration-response data that was analysed with the operational model of agonism (Kenakin & Christopoulos 2012). […]

hGLP-1R [16] = biological target: T1, hGLP-1R; experiment: ERK1/2 phosphorylation, FlpInCHO-hGLP-1R cells; type: cell-based
Procedure: as §1
FlpInCHO-hGLP-1R and FlpInCHO-pGLP-1R cells were seeded at a density of 3 × 10^4 cells/well into 96-well culture plates and incubated overnight at 37 °C in 5% CO2. Receptor-mediated ERK1/2 phosphorylation was determined as previously described.
as §2

purified human DPP-4 = purified human DPP-4 (Homo sapiens, UniProt P27487); experiment: Cleavage by purified human DPP-4 (RP-HPLC); type: in vitro ADME; details: 30 μM peptide, DPP-4 3 U/L, 0.1 M sodium phosphate pH 7.4, 37 °C, 0-120 min, n = 3
Procedure: as §4

T1 sequence (P43220 24-463): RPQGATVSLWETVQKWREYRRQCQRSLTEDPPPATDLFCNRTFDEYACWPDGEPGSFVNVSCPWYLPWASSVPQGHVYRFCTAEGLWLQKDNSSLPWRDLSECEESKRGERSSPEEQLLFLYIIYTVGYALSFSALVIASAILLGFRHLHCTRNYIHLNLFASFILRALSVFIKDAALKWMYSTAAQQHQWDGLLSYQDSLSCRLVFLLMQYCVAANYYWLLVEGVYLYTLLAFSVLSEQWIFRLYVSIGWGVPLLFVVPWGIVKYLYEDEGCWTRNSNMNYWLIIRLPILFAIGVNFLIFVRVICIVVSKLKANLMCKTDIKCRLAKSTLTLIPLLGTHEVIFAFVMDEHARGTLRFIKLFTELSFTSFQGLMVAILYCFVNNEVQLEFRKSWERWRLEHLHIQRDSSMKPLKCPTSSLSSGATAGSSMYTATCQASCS
Sequence of purified human DPP-4 (P27487 whole entry): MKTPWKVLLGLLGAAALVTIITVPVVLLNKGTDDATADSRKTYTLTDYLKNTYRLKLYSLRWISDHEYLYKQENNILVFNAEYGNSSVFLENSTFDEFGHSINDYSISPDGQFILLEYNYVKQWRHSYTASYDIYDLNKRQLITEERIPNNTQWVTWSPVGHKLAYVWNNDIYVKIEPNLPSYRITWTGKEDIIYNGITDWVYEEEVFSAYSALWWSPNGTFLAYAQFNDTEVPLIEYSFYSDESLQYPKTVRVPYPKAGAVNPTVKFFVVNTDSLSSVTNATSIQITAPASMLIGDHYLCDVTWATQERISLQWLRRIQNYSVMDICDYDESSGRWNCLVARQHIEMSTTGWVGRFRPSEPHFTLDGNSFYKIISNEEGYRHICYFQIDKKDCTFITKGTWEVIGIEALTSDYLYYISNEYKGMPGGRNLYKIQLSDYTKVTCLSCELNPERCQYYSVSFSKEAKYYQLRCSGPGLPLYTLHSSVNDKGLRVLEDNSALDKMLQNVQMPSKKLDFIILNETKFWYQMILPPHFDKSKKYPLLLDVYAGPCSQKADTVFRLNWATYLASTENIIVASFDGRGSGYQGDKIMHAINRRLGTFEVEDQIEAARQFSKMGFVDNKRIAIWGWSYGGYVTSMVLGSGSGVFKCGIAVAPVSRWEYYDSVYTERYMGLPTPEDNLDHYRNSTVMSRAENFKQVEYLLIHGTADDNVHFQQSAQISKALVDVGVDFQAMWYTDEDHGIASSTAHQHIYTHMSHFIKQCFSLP

CC[C@H](C)[C@H](NC(=O)[C@H](Cc1ccccc1)NC(=O)[C@H](CCC(=O)O)NC(=O)[C@H](CCCCN)NC(=O)[C@H](C)NC(=O)[C@H](C)NC(=O)[C@H](CCC(N)=O)NC(=O)CNC(=O)[C@H](CCC(=O)O)NC(=O)[C@H](CC(C)C)NC(=O)[C@H](Cc1ccc(O)cc1)NC(=O)[C@H](CO)NC(=O)[C@H](CO)NC(=O)[C@@H](NC(=O)[C@H](CC(=O)O)NC(=O)[C@H](CO)NC(=O)[C@@H](NC(=O)[C@H](Cc1ccccc1)NC(=O)[C@@H](NC(=O)CNC(=O)[C@H](CCC(=O)O)NC(=O)[C@H](C)NC(=O)[C@@H](N)Cc1c[nH]cn1)[C@@H](C)O)[C@@H](C)O)C(C)C)C(=O)N[C@@H](C)C(=O)N[C@@H](Cc1c[nH]c2ccccc12)C(=O)N[C@@H](CC(C)C)C(=O)N[C@H](C(=O)N[C@@H](CCCCN)C(=O)NCC(=O)N[C@@H](CCCNC(=N)N)C(=O)NCC(=O)O)C(C)C [hGLP-1]
pIC50 pGLP-1R CHO (pGLP-1R [1]): 8.9 ± 0.1
pEC50 pGLP-1R CHO Ca2+ mobilization (pGLP-1R [2]): 8.3 ± 0.1^&
pEC50 INS-1 (832/13) cAMP accumulation (INS-1 (832/13) cells): 9.6 ± 0.3
half-life at 30 μM (DPP-4 [3]): ≤ 1 h

H-Ala-Pro-p-nitroanilide
cleaved bond [4]: Pro-p-nitroanilide
cleaved bond [5]: Pro-p-nitroanilide
cleaved bond [6]: Pro-p-nitroanilide

HAEGTFTSDVSSYLEGQAAKEFIAWLVKGRG
fragment found (echidna serum): hGLP-1 (1-22) HAEGTFTSDVSSYLEGQAAKEF
not cleaved [7]: remained intact (0% degraded)

HFDGVYTDYFSRYLEEKATNEFIDWLLKGQE
not cleaved [8]: 99.3 ± 1.8% after 11 h
cleaved bond (echidna serum): T19-N20; also recorded: R12-Y13; also recorded: Y13-L14
not cleaved (DPP-4 [9]): not degraded by human DPP-4

HFDGVYTDYFSRYLEEKATNEFIDWLLKGQE [eGLP-1]
Stability in albumin-depleted human serum (in words) (in vitro [10]): remained stable
remaining at 11 h, 7 μM (in vitro [10]): 99.3 ± 1.8%
EC50 (hGLP-1R [11]): 10000 nM
IC50 (hGLP-1R [12]): 25.1 nM
Uncleaved peptide remaining after 11 hours in echidna serum (in vitro [13]): less than 50%
remaining at 11 h, 7 μM (in vitro [13]): 42.4 ± 4.3%
Effect of DPP-4 inhibitor P32/98 on degradation in platypus serum (in words) (in vitro [14]): did not alter the cleavage pattern
remaining at 11 h, 7 μM (in vitro [14]): 48.3 ± 3.5%
EC50 (hGLP-1R [15]): 126 nM
EC50 (hGLP-1R [16]): 794 nM
Degradation by purified human DPP-4 (in words) (purified human DPP-4): not degraded

HSEGTFTNDVTRLLEEKATSEFIAWLLKGLE
not cleaved [8]: 96.4 ± 2.0% after 11 h
cleaved bond (echidna serum): R12-L13; also recorded: L14-E15; also recorded: E16-K17; also recorded: T19-S20; also recorded: L26-L27; also recorded: K28-G29
not cleaved (DPP-4 [9]): not degraded by human DPP-4

HSEGTFTNDVTRLLEEKATSEFIAWLLKGLE [pGLP-1]
Stability in albumin-depleted human serum (in words) (in vitro [10]): remained stable
remaining at 11 h, 7 μM (in vitro [10]): 96.4 ± 2%
EC50 (hGLP-1R [11]): 316 nM
IC50 (hGLP-1R [12]): 12.6 nM
Uncleaved peptide remaining after 11 hours in echidna serum (in vitro [13]): less than 50%
remaining at 11 h, 7 μM (in vitro [13]): 49.4 ± 2.9%
Effect of DPP-4 inhibitor P32/98 on degradation in platypus serum (in words) (in vitro [14]): did not alter the cleavage pattern
remaining at 11 h, 7 μM (in vitro [14]): 55.1 ± 3.5%
EC50 (hGLP-1R [15]): 2 nM
EC50 (hGLP-1R [16]): 12.6 nM
Degradation by purified human DPP-4 (in words) (purified human DPP-4): not degraded
